Measurements reported in ChEMBL document CHEMBL3885861, “Open TG-GATES”.

Species: Rattus norvegicus
Assay: Open TG-GATES - Regimen: Daily Repeat
Format: toxicity, organism-based, Sprague-Dawley
Design: regimen Daily Repeat, gender Male, age 6 weeks
Settings: in vivo, po, 0 mg/kg, route gavage, dose level Control; for APTT / Bas / Eos / Fbg / Hb / Ht / Lym / MCH / MCHC / MCV / Mono / Neu / PT / Plat / RBC / Ret / WBC: tissue Blood; for KIDNEY_L / KIDNEY_R / KIDNEY_TOTAL: tissue Kidney; for LIVER: tissue Liver; for A/G / ALP / ALT / AST / BUN / CRE / Ca / Cl / DBIL / GLC / IP / K / LDH / Na / PL / RALB / TBIL / TC / TG / TP / gamma-GTP: tissue Plasma

For C[C@](N)(Cc1ccc(O)c(O)c1)C(=O)O [METHYLDOPA], the TERMINAL_BW (72 h, time 3 day) was 207.1 g, the APTT (72 h, time 3 day) was 15.9 s and the Bas (72 h, time 3 day) was 0%. For the same compound, the Eos (72 h, time 3 day) was 1.2%, the Fbg (72 h, time 3 day) was 258.8 mg/dL and the Hb (72 h, time 3 day) was 13.1 g/dL. The Ht (72 h, time 3 day) was 38.4%, the Lym (72 h, time 3 day) was 72.4% and the MCH (72 h, time 3 day) was 21.5 pg. It also gave an MCHC (72 h, time 3 day) of 34.1%, an MCV (72 h, time 3 day) of 63.1 fL and a Mono (72 h, time 3 day) of 3.4%. For the same compound, the Neu (72 h, time 3 day) was 22.6%, the PT (72 h, time 3 day) was 12.6 s and the Plat (72 h, time 3 day) was 117.2 x10_4/uL. For the same compound, the RBC (72 h, time 3 day) was 609 x10_4/ul, the Ret (72 h, time 3 day) was 7.9% and the WBC (72 h, time 3 day) was 72.1 x10_2/uL. For the same compound, the KIDNEY_L (72 h, time 3 day) was 0.9 g, the KIDNEY_R (72 h, time 3 day) was 0.9 g and the KIDNEY_TOTAL (72 h, time 3 day) was 1.8 g. The LIVER (72 h, time 3 day) was 9.3 g, the A/G (72 h, time 3 day) was 0.8 and the ALP (72 h, time 3 day) was 1855.2 IU/L. The ALT (72 h, time 3 day) was 59.4 IU/L, the AST (72 h, time 3 day) was 80.2 IU/L and the BUN (72 h, time 3 day) was 14 mg/dL. It also gave a CRE (72 h, time 3 day) of 0.2 mg/dL, a Ca (72 h, time 3 day) of 11.1 mg/dL and a Cl (72 h, time 3 day) of 106.6 meq/L. It also gave a DBIL (72 h, time 3 day) of 0.008 mg/dL, a GLC (72 h, time 3 day) of 172.8 mg/dL and an IP (72 h, time 3 day) of 7.5 mg/dL. The K (72 h, time 3 day) was 3.9 meq/L, the LDH (72 h, time 3 day) was 52.2 IU/L and the Na (72 h, time 3 day) was 144.6 meq/L. For the same compound, the PL (72 h, time 3 day) was 129.8 mg/dL, the RALB (72 h, time 3 day) was 2.6 g/dL and the TBIL (72 h, time 3 day) was 0.056 mg/dL. For the same compound, the TC (72 h, time 3 day) was 76.8 mg/dL, the TG (72 h, time 3 day) was 61.4 mg/dL and the TP (72 h, time 3 day) was 5.6 g/dL. The gamma-GTP (72 h, time 3 day) was 1.2 IU/L, the TERMINAL_BW ([…], time 7 day) was 238 g and the TERMINAL_BW ([…], time 14 day) was 288.8 g. The TERMINAL_BW ([…], time 28 day) was 375.3 g, the APTT ([…], time 7 day) was 17 s and the Bas ([…], time 7 day) was 0%. It also gave an Eos ([…], time 7 day) of 1.2%, a Fbg ([…], time 7 day) of 283.2 mg/dL and a Hb ([…], time 7 day) of 13.5 g/dL. It also gave a Ht ([…], time 7 day) of 39.4%, a Lym ([…], time 7 day) of 75% and an MCH ([…], time 7 day) of 21 pg. It also gave an MCHC ([…], time 7 day) of 34.2%, an MCV ([…], time 7 day) of 61.4 fL and a Mono ([…], time 7 day) of 3%. It also gave a Neu ([…], time 7 day) of 20.4%, a PT ([…], time 7 day) of 12 s and a Plat ([…], time 7 day) of 114.7 x10_4/uL. It also gave an RBC ([…], time 7 day) of 641.2 x10_4/ul, a Ret ([…], time 7 day) of 6% and a WBC ([…], time 7 day) of 75.9 x10_2/uL. It also gave an APTT ([…], time 14 day) of 16.9 s, a Bas ([…], time 14 day) of 0% and an Eos ([…], time 14 day) of 1%. It also gave a Fbg ([…], time 14 day) of 290.4 mg/dL, a Hb ([…], time 14 day) of 13.8 g/dL and a Ht ([…], time 14 day) of 39.4%. For the same compound, the Lym ([…], time 14 day) was 76%, the MCH ([…], time 14 day) was 21.2 pg and the MCHC ([…], time 14 day) was 35%. The MCV ([…], time 14 day) was 60.4 fL, the Mono ([…], time 14 day) was 3.2% and the Neu ([…], time 14 day) was 19.6%. It also gave a PT ([…], time 14 day) of 14.1 s, a Plat ([…], time 14 day) of 102.2 x10_4/uL and an RBC ([…], time 14 day) of 652 x10_4/ul. For the same compound, the Ret ([…], time 14 day) was 4.8%, the WBC ([…], time 14 day) was 69.9 x10_2/uL and the APTT ([…], time 28 day) was 19.6 s. The Bas ([…], time 28 day) was 0%, the Eos ([…], time 28 day) was 1.4% and the Fbg ([…], time 28 day) was 315.2 mg/dL. For the same compound, the Hb ([…], time 28 day) was 15 g/dL, the Ht ([…], time 28 day) was 43.3% and the Lym ([…], time 28 day) was 74.4%. The MCH ([…], time 28 day) was 19.5 pg, the MCHC ([…], time 28 day) was 34.8% and the MCV ([…], time 28 day) was 56 fL. It also gave a Mono ([…], time 28 day) of 2.6%, a Neu ([…], time 28 day) of 21.4% and a PT ([…], time 28 day) of 13.6 s. The Plat ([…], time 28 day) was 106 x10_4/uL, the RBC ([…], time 28 day) was 774 x10_4/ul and the Ret ([…], time 28 day) was 2.7%. For the same compound, the WBC ([…], time 28 day) was 74.6 x10_2/uL, the KIDNEY_L ([…], time 7 day) was 1 g and the KIDNEY_R ([…], time 7 day) was 1 g. The KIDNEY_TOTAL ([…], time 7 day) was 2 g, the KIDNEY_L ([…], time 14 day) was 1.1 g and the KIDNEY_R ([…], time 14 day) was 1.1 g. For the same compound, the KIDNEY_TOTAL ([…], time 14 day) was 2.2 g, the KIDNEY_L ([…], time 28 day) was 1.3 g and the KIDNEY_R ([…], time 28 day) was 1.2 g. The KIDNEY_TOTAL ([…], time 28 day) was 2.5 g, the LIVER ([…], time 7 day) was 10.9 g and the LIVER ([…], time 14 day) was 12.7 g. It also gave an LIVER ([…], time 28 day) of 15.4 g, an A/G ([…], time 7 day) of 0.9 and an ALP ([…], time 7 day) of 1514 IU/L. It also gave an ALT ([…], time 7 day) of 46.8 IU/L, an AST ([…], time 7 day) of 72 IU/L and a BUN ([…], time 7 day) of 15.6 mg/dL. It also gave a CRE ([…], time 7 day) of 0.2 mg/dL, a Ca ([…], time 7 day) of 11 mg/dL and a Cl ([…], time 7 day) of 108.6 meq/L. It also gave a DBIL ([…], time 7 day) of 0.008 mg/dL, a GLC ([…], time 7 day) of 178.2 mg/dL and an IP ([…], time 7 day) of 6.9 mg/dL. It also gave a K ([…], time 7 day) of 4.2 meq/L, an LDH ([…], time 7 day) of 57.4 IU/L and a Na ([…], time 7 day) of 143.8 meq/L. The PL ([…], time 7 day) was 140.8 mg/dL, the RALB ([…], time 7 day) was 2.7 g/dL and the TBIL ([…], time 7 day) was 0.056 mg/dL. It also gave a TC ([…], time 7 day) of 75.8 mg/dL, a TG ([…], time 7 day) of 93.2 mg/dL and a TP ([…], time 7 day) of 5.8 g/dL. The gamma-GTP ([…], time 7 day) was 1.2 IU/L, the A/G ([…], time 14 day) was 0.8 and the ALP ([…], time 14 day) was 1553 IU/L. It also gave an ALT ([…], time 14 day) of 45.2 IU/L, an AST ([…], time 14 day) of 65.4 IU/L and a BUN ([…], time 14 day) of 15.2 mg/dL. For the same compound, the CRE ([…], time 14 day) was 0.2 mg/dL, the Ca ([…], time 14 day) was 11.3 mg/dL and the Cl ([…], time 14 day) was 107 meq/L. The DBIL ([…], time 14 day) was 0.01 mg/dL, the GLC ([…], time 14 day) was 188.4 mg/dL and the IP ([…], time 14 day) was 6.4 mg/dL. The K ([…], time 14 day) was 4.5 meq/L, the LDH ([…], time 14 day) was 66.2 IU/L and the Na ([…], time 14 day) was 142 meq/L. The PL ([…], time 14 day) was 151.8 mg/dL, the RALB ([…], time 14 day) was 2.7 g/dL and the TBIL ([…], time 14 day) was 0.058 mg/dL. It also gave a TC ([…], time 14 day) of 76 mg/dL, a TG ([…], time 14 day) of 140.8 mg/dL and a TP ([…], time 14 day) of 6 g/dL. It also gave a gamma-GTP ([…], time 14 day) of 1 IU/L, an A/G ([…], time 28 day) of 0.8 and an ALP ([…], time 28 day) of 1221.8 IU/L. The ALT ([…], time 28 day) was 41.2 IU/L, the AST ([…], time 28 day) was 59 IU/L and the BUN ([…], time 28 day) was 15.4 mg/dL. It also gave a CRE ([…], time 28 day) of 0.2 mg/dL, a Ca ([…], time 28 day) of 11.2 mg/dL and a Cl ([…], time 28 day) of 105.6 meq/L. It also gave a DBIL ([…], time 28 day) of 0.018 mg/dL, a GLC ([…], time 28 day) of 185.4 mg/dL and an IP ([…], time 28 day) of 6 mg/dL. For the same compound, the K ([…], time 28 day) was 3.9 meq/L, the LDH ([…], time 28 day) was 46.2 IU/L and the Na ([…], time 28 day) was 142.8 meq/L. It also gave a PL ([…], time 28 day) of 167.8 mg/dL, an RALB ([…], time 28 day) of 2.8 g/dL and a TBIL ([…], time 28 day) of 0.06 mg/dL. For the same compound, the TC ([…], time 28 day) was 89 mg/dL, the TG ([…], time 28 day) was 140.8 mg/dL and the TP ([…], time 28 day) was 6.3 g/dL. The gamma-GTP ([…], time 28 day) was 1 IU/L.
